Reference: patent publication US20150110725A1, “MIXTURE FOR THE INHIBITION OF MELANIN BIOSYNTHESIS” (GENERAL TOPICS S.R.L., priority 2012, published 2015)

Tested on: murine melanoma named B16
Experiment: Inhibition of melanin biosynthesis in secondary cultures of murine melanoma B16, 72 hours of exposure
Format: cell-based
Method: In order to evaluate the inhibition of melanin biosynthesis by the present mixture, an in vitro experimental model was used which consists of secondary cultures of a murine melanoma named B16. This strain is composed of cells with fibroblastoid morphology which produce melanin (Source: European Collection of Cell Cultures, ECACC).
For the tests, powders of the active ingredients were dissolved in ethanol and propylene glycol (1:1) at 10% (w/w) followed by dilution in culture medium DMEM high glucose+10% FBS supplemented with antibiotics (Penicillin 2000 IU/ml, Streptomycin 1000 IU/ml, Gentamicin 10 mg/ml) to final concentrations of: • A) 4-(1-phenylethyl)-1,3-benzenediol: 10 μg/ml; • B) Acetylglucosamine: 25 μg/ml, 50 μg/ml, 75 μg/ml; • C) Ethyl linoleate: 50 μg/ml; • D) 4-(1-phenylethyl)-1,3-benzenediol at concentration of 10 μg/ml and acetylglucosamine at concentration of 75 μg/ml; • E) 4-(1-phenylethyl)-1,3-benzenediol at a concentration of 10 μg/ml, acetylglucosamine at a concentration of 75 μg/ml, and ethyl linoleate at a concentration of 75 μg/ml. • F) hydroquinone at a concentration of 5 μg/ml (non-cytotoxic concentration)
At passage 30 the afore said cells were seeded on 6-well plates for 24 hours at a concentration of 80,000 cells per well. Then, fresh culture medium containing the afore said samples was added. Untreated cells were used as a negative control, whereas cells treated with hydroquinone at a non-cytotoxic concentration of 5 μg/ml were used as a positive control, as indicated above at point F).
Each sample was tested in duplicate.
After 72 hours of exposure, melanin and intracellular proteins were dosed.
Cells were washed once with phosphate buffered saline (PBS) and then lysed with NaOH 0.1N. The lysate was heated at 60° C. for 1 hour to allow melanin to be solubilized.
In order to evaluate the amount of melanin in the cell lysate, a spectrophotometric reading was taken at a wavelength of 405 nm with the use of a colorimeter (Tecan Sunrise Remote Model) equipped with a plate reader.
A standard curve for melanin titrated from 15 to 500 μg/ml was prepared.
The protein dosage was carried out according to the Bradford's method (Bradford M., […]). […]
The reading was taken at 595 nm with a colorimeter (Tecan, Sunrise) equipped with a plate reader.
In order to quantify protein and melanin contents, a standard calibration curve for albumin and melanin was constructed, and their concentrations in the samples were calculated by using the curve fit formula and the corresponding absorbances.
Then, averages of individual data were calculated and, for each sample, the percentage reduction of melanin was calculated compared to the negative control: […]

Oc1ccc(O)cc1 [hydroquinone]
inhibition at 5 µg/mL (Mus musculus, hydroquinone at non-cytotoxic concentration (5 μg/ml), positive control, B16 cells, 72 h, read-out: ability to inhibit melanin biosynthesis): ~40%

CCCCC/C=C\C/C=C\CCCCCCCC(=O)OCC [ethyl linoleate]
ability to inhibit melanin synthesis when used individually (ethyl linoleate alone (50 μg/ml), compared with the mixture containing it): significantly lower than that of the present mixture

CC(c1ccccc1)c1ccc(O)cc1O (stereo not shown) [4-(1-phenylethyl)-1,3-benzenediol]
percentage reduction in melanin biosynthesis (10 μg/ml, B16 cells, 72 h): about 50%

CC(=O)N[C@@H]1[C@@H](O)[C@H](O)[C@@H](CO)O[C@@H]1O [acetylglucosamine]
average reduction in melanin biosynthesis (acetylglucosamine alone, average over 25 μg/ml, 50 μg/ml and 75 μg/ml, B16 cells, 72 h): 8%
